# “Also recorded” adds a separate entry of the source. Where two headings read alike, the source gives them in different places.
# How the values were obtained:
# [1] = tested on: TA98, TA100, TA102, TA1535, TA1537
# Experimental: Safety studies were performed by commercial services using their standard protocols. […] Genotoxicity was investigated using the Ames test (Bacterial Reverse Mutation Assay) (Covance Laboratories Ltd, North Yorkshire, England). In vitro mammalian cell micronucleus screening assay was studied in human peripheral blood lymphocytes (BioReliance Corporation, Rockville, USA). Cardiotoxicity was determined against the hERG channel in an automated patch clamp assay using the Qpatch or against the hNaV 1.5, hKV 1.5 and hCaV 1.2 using a manual patch-clamp technique (Metrion Biosciences, Cambridge, UK). Cytotoxicity in human and rat primary hepatocytes was assessed using the CellTiter-Blue assay performed by commercial services (KaLy-Cell). The viability of HepG2 cells was monitored through the addition of 1 mM resazurin. Following 6 h incubation, the relative amount of reduced resazurin was detected in a fluorimeter and compared to the assay controls (vehicle: 0.1% DMSO and positive control: 10 µM puromycin).
# [2] = tested on: human primary hepatocytes; test: Metabolite identification in human hepatocyte relay assay
# From the text: Briefly, cryopreserved human primary hepatocytes were thawed and cultured as described above.
# [3] = Stability under stress storage conditions (XRPD); format: physicochemical; conditions: 40 °C, 75% RH open and closed container or 60 °C, one month
compound,measurement,setting,value
C[C@@H](CNC(=O)[C@H](O)C(C)(C)CO)NC(=O)c1cc(F)c(F)cc1F [MMV693183],Fold Increase,"[1]; TA102, -S-9, 5 ug/plate",1
same,Mean (Revertant Numbers Per Plate),"[1]; TA102, -S-9, 5 ug/plate",245.7
same,Fold Increase,"[1]; TA102, -S-9, 16 ug/plate",1.1
same,Mean (Revertant Numbers Per Plate),"[1]; TA102, -S-9, 16 ug/plate",251.3
same,Fold Increase,"[1]; TA102, -S-9, 50 ug/plate",1.1
same,Mean (Revertant Numbers Per Plate),"[1]; TA102, -S-9, 50 ug/plate",256.3
same,Fold Increase,"[1]; TA102, -S-9, 160 ug/plate",1
same,Mean (Revertant Numbers Per Plate),"[1]; TA102, -S-9, 160 ug/plate",240
same,Fold Increase,"[1]; TA102, -S-9, 500 ug/plate",0.9
same,Mean (Revertant Numbers Per Plate),"[1]; TA102, -S-9, 500 ug/plate",202.7
same,Fold Increase,"[1]; TA102, -S-9, 1600 ug/plate",0.8
same,Mean (Revertant Numbers Per Plate),"[1]; TA102, -S-9, 1600 ug/plate",181.7
same,Fold Increase,"[1]; TA102, -S-9, 5000 ug/plate",0.1
same,Mean (Revertant Numbers Per Plate),"[1]; TA102, -S-9, 5000 ug/plate",26.7
same,Fold Increase,"[1]; TA1535, +S-9, 5 ug/plate",0.9
same,Mean (Revertant Numbers Per Plate),"[1]; TA1535, +S-9, 5 ug/plate",20.7
same,Fold Increase,"[1]; TA1535, +S-9, 16 ug/plate",0.8
same,Mean (Revertant Numbers Per Plate),"[1]; TA1535, +S-9, 16 ug/plate",19.3
same,Fold Increase,"[1]; TA1535, +S-9, 50 ug/plate",1
same,Mean (Revertant Numbers Per Plate),"[1]; TA1535, +S-9, 50 ug/plate",23.3
same,Fold Increase,"[1]; TA1535, +S-9, 160 ug/plate",1.1
same,Mean (Revertant Numbers Per Plate),"[1]; TA1535, +S-9, 160 ug/plate",25
same,Fold Increase,"[1]; TA1535, +S-9, 500 ug/plate",0.8
same,Mean (Revertant Numbers Per Plate),"[1]; TA1535, +S-9, 500 ug/plate",17.7
same,Fold Increase,"[1]; TA1535, +S-9, 1600 ug/plate",1
same,Mean (Revertant Numbers Per Plate),"[1]; TA1535, +S-9, 1600 ug/plate",24
same,Fold Increase,"[1]; TA1535, +S-9, 5000 ug/plate",1
same,Mean (Revertant Numbers Per Plate),"[1]; TA1535, +S-9, 5000 ug/plate",22.7
same,Fold Increase,"[1]; TA1535, -S-9, 5 ug/plate",1.4
same,Mean (Revertant Numbers Per Plate),"[1]; TA1535, -S-9, 5 ug/plate",35
same,Fold Increase,"[1]; TA1535, -S-9, 16 ug/plate",0.8
same,Mean (Revertant Numbers Per Plate),"[1]; TA1535, -S-9, 16 ug/plate",20.7
same,Fold Increase,"[1]; TA1535, -S-9, 50 ug/plate",0.9
same,Mean (Revertant Numbers Per Plate),"[1]; TA1535, -S-9, 50 ug/plate",22
same,Fold Increase,"[1]; TA1535, -S-9, 160 ug/plate",0.9
same,Mean (Revertant Numbers Per Plate),"[1]; TA1535, -S-9, 160 ug/plate",24
same,Fold Increase,"[1]; TA1535, -S-9, 500 ug/plate",1.2
same,Mean (Revertant Numbers Per Plate),"[1]; TA1535, -S-9, 500 ug/plate",29.3
same,Fold Increase,"[1]; TA1535, -S-9, 1600 ug/plate",1
same,Mean (Revertant Numbers Per Plate),"[1]; TA1535, -S-9, 1600 ug/plate",26
same,Fold Increase,"[1]; TA1535, -S-9, 5000 ug/plate",0.9
same,Mean (Revertant Numbers Per Plate),"[1]; TA1535, -S-9, 5000 ug/plate",22
same,difference in revertant numbers vs control,"[1]; TA1535, TA1537",< 3 fold
same,Fold Increase,"[1]; TA1537, +S-9, 5 ug/plate",1.4
same,Mean (Revertant Numbers Per Plate),"[1]; TA1537, +S-9, 5 ug/plate",10
same,Fold Increase,"[1]; TA1537, +S-9, 16 ug/plate",1.1
same,Mean (Revertant Numbers Per Plate),"[1]; TA1537, +S-9, 16 ug/plate",7.7
same,Fold Increase,"[1]; TA1537, +S-9, 50 ug/plate",1.9
same,Mean (Revertant Numbers Per Plate),"[1]; TA1537, +S-9, 50 ug/plate",13.3
same,Fold Increase,"[1]; TA1537, +S-9, 160 ug/plate",1
same,Mean (Revertant Numbers Per Plate),"[1]; TA1537, +S-9, 160 ug/plate",7.3
same,Fold Increase,"[1]; TA1537, +S-9, 500 ug/plate",1.6
same,Mean (Revertant Numbers Per Plate),"[1]; TA1537, +S-9, 500 ug/plate",11
same,Fold Increase,"[1]; TA1537, +S-9, 1600 ug/plate",1.4
same,Mean (Revertant Numbers Per Plate),"[1]; TA1537, +S-9, 1600 ug/plate",9.7
same,Fold Increase,"[1]; TA1537, +S-9, 5000 ug/plate",1
same,Mean (Revertant Numbers Per Plate),"[1]; TA1537, +S-9, 5000 ug/plate",7.3
same,Fold Increase,"[1]; TA1537, -S-9, 5 ug/plate",1.1
same,Mean (Revertant Numbers Per Plate),"[1]; TA1537, -S-9, 5 ug/plate",7.7
same,Fold Increase,"[1]; TA1537, -S-9, 16 ug/plate",0.9
same,Mean (Revertant Numbers Per Plate),"[1]; TA1537, -S-9, 16 ug/plate",6.3
same,Fold Increase,"[1]; TA1537, -S-9, 50 ug/plate",1
same,Mean (Revertant Numbers Per Plate),"[1]; TA1537, -S-9, 50 ug/plate",6.7
same,Fold Increase,"[1]; TA1537, -S-9, 160 ug/plate",0.8
same,Mean (Revertant Numbers Per Plate),"[1]; TA1537, -S-9, 160 ug/plate",5.3
same,Fold Increase,"[1]; TA1537, -S-9, 500 ug/plate",1
same,Mean (Revertant Numbers Per Plate),"[1]; TA1537, -S-9, 500 ug/plate",7.3
same,Fold Increase,"[1]; TA1537, -S-9, 1600 ug/plate",0.9
same,Mean (Revertant Numbers Per Plate),"[1]; TA1537, -S-9, 1600 ug/plate",6
same,Fold Increase,"[1]; TA1537, -S-9, 5000 ug/plate",0.6
same,Mean (Revertant Numbers Per Plate),"[1]; TA1537, -S-9, 5000 ug/plate",4
same,In vitro (MS response),[2],85%
same,stability after storage under stress conditions,[3],chemically stable; also recorded: no form-change
